Where two headings read alike, the source gives them in different places.
Key:
[1] = test system: 293T cells; test: MTT cytotoxicity assay, normal cells; assay type: cell-based; conditions: Homo sapiens, HEK-293T, read-out: IC50 293T
Protocol: (§1) The cytotoxicity of Rhein-DCA conjugate was performed on various cancer cell lines, including breast cancer (4T1 and MCF-7), cervical cancer (HeLa), and colorectal carcinoma (CT26) via 3-(4,5)-dimethylthiahiazo(-z-y1)-3,5-di-phenytetrazoliumromide (MTT) assay. […] Moreover, the cytotoxicity of these compounds (rhein, DCA, R + D and Rhein-DCA) for normal cells (293T) was lower than that of those tested cancer cells.
(§2) Mouse breast cancer 4T1 cells and Mouse colorectal carcinoma CT26 cells were purchased from Haixing Biosciences Co., Ltd (Jiangsu, P. R. China), and cultured in complete RPMI-1640 medium supplemented with 10% FBS and 1% Penicillin / Streptomycin in a cell incubator (37 °C in 95% air and 5% CO2 atmosphere). Human breast cancer MCF-7 cells, Human cervical carcinoma HeLa cells and Human embryonic kidney 293T cells were obtained from the China Center for Type Culture Collection (CCTCC). MCF-7 and HeLa cells were cultured in DMEM medium containing 10% FBS and 1% Penicillin / Streptomycin and then cultured in a cell incubator (37 °C in 95% air and 5% CO2 atmosphere).
The cytotoxicity of rhein, DCA, the mixture of rhein and DCA (R + D) and Rhein-DCA conjugate was evaluated on HeLa, MCF-7, CT26, 4T1 and 293T cell lines by MTT assay. Cells were seeded in 96-well plates at a density of 3 × 10^3 cells per well in the corresponding complete culture medium and cultured for 24 h. Then cells were incubated with 200 μL fresh medium containing the respective desired concentrations of rhein, DCA, R + D (with the concentrations being 100, 66.7, 44.4, 29.6, 19.8, 13.2, 8.8, 5.9, 3.9, 2.6, 1.7 and 1.2 μM, respectively) and Rhein-DCA conjugate (with the concentrations being 29.6, 19.8, 13.2, 8.8, 5.9, 3.9, 2.6, 1.7, 1.2, 0.8, 0.5 and 0.3 μM, respectively). After 72 h of incubation, 20 μL of MTT solution (5 mg/mL) was added to each well and the plates were cultured for another 4 h. The medium was carefully removed, and 110 μL of DMSO was added into per well to dissolve the formazan. The absorption densities at 590 nm were recorded with microplate reader. […]

[2] = test system: 4T1, MCF-7, HeLa and CT26 cell lines; test: MTT cytotoxicity assay, statement over all tested cancer cell lines; assay type: cell-based; conditions: for IC50: 72 h, read-out: IC50 in all tested cell lines
Protocol: as §1
(§3) The cytotoxicity of rhein, DCA, the mixture of rhein and DCA (R + D) and Rhein-DCA conjugate was evaluated on HeLa, MCF-7, CT26, 4T1 and 293T cell lines by MTT assay. Cells were seeded in 96-well plates at a density of 3 × 10^3 cells per well in the corresponding complete culture medium and cultured for 24 h. Then cells were incubated with 200 μL fresh medium containing the respective desired concentrations of rhein, DCA, R + D (with the concentrations being 100, 66.7, 44.4, 29.6, 19.8, 13.2, 8.8, 5.9, 3.9, 2.6, 1.7 and 1.2 μM, respectively) and Rhein-DCA conjugate (with the concentrations being 29.6, 19.8, 13.2, 8.8, 5.9, 3.9, 2.6, 1.7, 1.2, 0.8, 0.5 and 0.3 μM, respectively). After 72 h of incubation, 20 μL of MTT solution (5 mg/mL) was added to each well and the plates were cultured for another 4 h. The medium was carefully removed, and 110 μL of DMSO was added into per well to dissolve the formazan. The absorption densities at 590 nm were recorded with microplate reader. The quoted IC50 values were presented as the mean ± standard deviation.

[3] = test system: 4T1 cells; test: Oxygen consumption rate (Seahorse); assay type: cell-based, Mouse; conditions: 6.25 μM, 24 h
From the text: (§4) TMRE is a lipophilic cationic fluorescent probe (Ex = 550 nm, Em = 575 nm). The accumulation of TMRE within the mitochondria would reduce with the mitochondrial depolarization, resulting in a decrease in fluorescence intensity. […] The integrity of mitochondria is significant for mitochondrial bioenergy production. Given the influence of ETC, NADH dehydrogenase, ATP synthase and the decrease of Δψm, we speculated that the ATP production from OXPHOS would be hindered by Rhein-DCA conjugate. Mitochondrial bioenergetic processes of 4T1 cells was measured by oxygen consumption rate (OCR) to reflect the capability of OXPHOS.
The mitochondrial bioenergetics of 4T1 cells was investigated by Seahorse Extracellular Flux analyser. 4T1 cells were seeded in 24-well plates (Seahorse Bioscience) at a density of 2 × 10^4 cells per well and incubated for 24 h at 37 °C in 5% CO2 atmosphere. The cells were treated with indicated drugs at a concentration of 6.25 μM for 24 h. At the same time, XF sensor cartridges were hydrated overnight in a CO2-free environment. The cells were cultured in the incubator for 1 h at 37 °C without CO2 after washed with Seahorse XF assay medium. Three baseline measurements of OCR were detected with Seahorse XFe24 analyzer when the oligomycin (1.0 μM, ATP synthase complex inhibitor), FCCP (1.0 μM, ATP synthesis uncoupler […]) and the mixture of antimycin-A (1.0 μM, inhibitor of complex III) and rotenone (1.0 μM, inhibitor that prevents the transfer of electrons from the Fe-S center in complex I to ubiquinone) were sequentially injected for the detection of the oxygen consumption rate.

[4] = test system: CT26 cells; test: MTT cytotoxicity assay; assay type: cell-based; conditions: Mus musculus, CT26, 72 h, read-out: IC50 CT26
Protocol: as §1, §2, §3

[5] = test system: 4T1 cells; test: MTT cytotoxicity assay; assay type: cell-based; conditions: Mus musculus, read-out: IC50 4T1
Protocol: as §1, §2, §3

[6] = test system: MCF-7 cells; test: MTT cytotoxicity assay; assay type: cell-based; conditions: Homo sapiens, read-out: IC50 MCF-7
Protocol: as §1, §2, §3

[7] = test system: HeLa cells; test: MTT cytotoxicity assay; assay type: cell-based; conditions: Homo sapiens
Protocol: as §1, §2, §3

[8] = test system: 4T1 cells; test: Mitochondrial membrane potential assay, JC-1; assay type: cell-based, Mouse; conditions: 6.25 μM, 24 h; for JC-1 green/red fluorescence (Δψm), in words: vs control
From the text: On the other hand, rhein could also disturb mitochondria, the camp of OXPHOS, to further prevent cancer cells from obtaining ATP by inducing pathological opening of mPTP [30]. We first detected mPTP on 4T1 cancer cells treated with indicated drugs according to the mPTP assay kit. The green fluorescence of Calcein AM in mitochondria would vanish when the quencher entered mitochondria through the opened mPTP channel. […] The sustained opening of mPTP along with the loss of Δψm. Thus, we further examined the Δψm of 4T1 cancer cells with JC-1 fluorescence dyes and tetramethylrhodamine, ethyl ester (TMRE) probe. The JC-1 dyes underwent a transition from aggregated red fluorescence to monomeric green fluorescence with mitochondrial depolarization in cells, and the increase of green/red fluorescence intensity ratio of JC-1 dyes indicated mitochondrial depolarization.
as §4
JC-1: The Δψm was performed using the JC-1 assay with flow cytometry and confocal microscope. 4T1 cells were separately seeded into 6-well plates and confocal dishes at a density of 10 × 10^4 cells per well and cultured at 37 °C for 24 h. Cells were cultured with PBS, rhein (6.25 μM), DCA (6.25 μM), R + D (6.25 μM + 6.25 μM) and Rhein-DCA (6.25 μM) for another 24 h. […] Samples were then immediately detected by flow cytometry and imaged with confocal microscope.

[9] = 72 h treatment, MTT, normal cells, mean ± S.D., n = 3
[10] = 72 h treatment, MTT, mean ± S.D., n = 3
[11] = 4T1, 72 h treatment, MTT, mean ± S.D., n = 3
[12] = MCF7, 72 h treatment, MTT, mean ± S.D., n = 3
[13] = 72 h treatment, MTT, mean ± S.D., n = 3, read-out: IC50 HeLa

SMILES | IC50 [1, 9] | IC50 ([2]; MTT, summary over the cell lines) | effect on OCR / cellular OXPHOS (basal respiration, ATP production, maximal respiration) [3] | IC50 [4, 10] | IC50 [5, 11] | IC50 [6, 12] | IC50 [7, 13] | JC-1 green/red fluorescence (Δψm), in words [8] | increase of cytotoxicity in comparison with individual rhein, DCA and their combination ([2]; all four cancer cell lines) | JC-1 green/red ratio relative to control group [8] | IC50 ([1]; 72 h) | IC50 [2] | IC50 [4] | IC50 ([5]; 4T1, 72 h) | IC50 ([6]; MCF7, 72 h) | IC50 ([7]; 72 h, read-out: IC50 HeLa)
O=C(O)c1cc(O)c2c(c1)C(=O)c1cccc(O)c1C2=O [Rhein, 4,5-dihydroxyanthraquinone-2-carboxylic acid] | 126 ± 13.6 µM | 40 to 80 µM | moderate effects | 42.1 ± 3.3 µM | 41.2 ± 1 µM | 79.9 ± 2.3 µM | 68.3 ± 5.1 µM | relatively increased green/red ratio | – | – | – | – | – | – | – | –
O=C(OCCOC(=O)C(Cl)Cl)c1cc(O)c2c(c1)C(=O)c1cccc(O)c1C2=O [Rhein-DCA] | 11.7 µM | – | complete disruption | 2.7 ± 0.1 µM | 1.7 µM | 3.9 µM | 6.7 µM | – | at least 10 fold | about 7 fold | – | – | – | – | – | –
O=C(O)C(Cl)Cl [DCA, Dichloroacetate] | – | – | minor effect | – | – | – | – | did not affect | – | – | > 100 µM | > 100 µM | > 100 µM | > 100 µM | > 100 µM | > 100 µM

— publication PMC12036875, “Mitochondria-targeting natural product rhein conjugated with dichloroacetate as the dual inhibitor of glycolysis and oxidative phosphorylation to off energize cancer cells and induce ROS storm” (Theranostics, 2025)
